Data taken from ChEMBL document CHEMBL4507293 (2021).

What was measured:
[1] = system: Leucine-rich repeat serine/threonine-protein kinase 2 (Homo sapiens), Q5S007 [G2019S]; conditions: Compound concentration 100.0 nM
[2] = target: Serine/threonine-protein kinase RIO2 (Homo sapiens) (UniProt Q9BVS4); conditions: Compound concentration 100.0 nM
[3] = target: 5'-AMP-activated protein kinase catalytic subunit alpha-1 (Homo sapiens) (UniProt Q13131); conditions: Compound concentration 100.0 nM
[4] = target: Cyclin-dependent kinase 2 (Homo sapiens) (UniProt P24941); conditions: Compound concentration 100.0 nM
[5] = target: Discoidin domain-containing receptor 2 (Homo sapiens) (UniProt Q16832); conditions: Compound concentration 100.0 nM
[6] = target: Ribosomal protein S6 kinase alpha-6 (Homo sapiens) (UniProt Q9UK32); conditions: Compound concentration 100.0 nM
[7] = target: BDNF/NT-3 growth factors receptor (Homo sapiens) (UniProt Q16620); conditions: Compound concentration 100.0 nM
[8] = target: Myosin-IIIa (Homo sapiens) (UniProt Q8NEV4); conditions: Compound concentration 100.0 nM
[9] = target: Ephrin type-A receptor 6 (Homo sapiens) (UniProt Q9UF33); conditions: Compound concentration 100.0 nM
[10] = target: Serine/threonine-protein kinase OSR1 (Homo sapiens) (UniProt O95747); conditions: Compound concentration 100.0 nM
[11] = system: Phosphatidylinositol 4,5-bisphosphate 3-kinase catalytic subunit alpha isoform (Homo sapiens), P42336 [I800L]; conditions: Compound concentration 100.0 nM
Phosphatidylinositol 4,5-bisphosphate 3-kinase catalytic subunit alpha isoform (Homo sapiens), P42336 [I800L], sequence (P42336 whole entry I800L, canonical isoform): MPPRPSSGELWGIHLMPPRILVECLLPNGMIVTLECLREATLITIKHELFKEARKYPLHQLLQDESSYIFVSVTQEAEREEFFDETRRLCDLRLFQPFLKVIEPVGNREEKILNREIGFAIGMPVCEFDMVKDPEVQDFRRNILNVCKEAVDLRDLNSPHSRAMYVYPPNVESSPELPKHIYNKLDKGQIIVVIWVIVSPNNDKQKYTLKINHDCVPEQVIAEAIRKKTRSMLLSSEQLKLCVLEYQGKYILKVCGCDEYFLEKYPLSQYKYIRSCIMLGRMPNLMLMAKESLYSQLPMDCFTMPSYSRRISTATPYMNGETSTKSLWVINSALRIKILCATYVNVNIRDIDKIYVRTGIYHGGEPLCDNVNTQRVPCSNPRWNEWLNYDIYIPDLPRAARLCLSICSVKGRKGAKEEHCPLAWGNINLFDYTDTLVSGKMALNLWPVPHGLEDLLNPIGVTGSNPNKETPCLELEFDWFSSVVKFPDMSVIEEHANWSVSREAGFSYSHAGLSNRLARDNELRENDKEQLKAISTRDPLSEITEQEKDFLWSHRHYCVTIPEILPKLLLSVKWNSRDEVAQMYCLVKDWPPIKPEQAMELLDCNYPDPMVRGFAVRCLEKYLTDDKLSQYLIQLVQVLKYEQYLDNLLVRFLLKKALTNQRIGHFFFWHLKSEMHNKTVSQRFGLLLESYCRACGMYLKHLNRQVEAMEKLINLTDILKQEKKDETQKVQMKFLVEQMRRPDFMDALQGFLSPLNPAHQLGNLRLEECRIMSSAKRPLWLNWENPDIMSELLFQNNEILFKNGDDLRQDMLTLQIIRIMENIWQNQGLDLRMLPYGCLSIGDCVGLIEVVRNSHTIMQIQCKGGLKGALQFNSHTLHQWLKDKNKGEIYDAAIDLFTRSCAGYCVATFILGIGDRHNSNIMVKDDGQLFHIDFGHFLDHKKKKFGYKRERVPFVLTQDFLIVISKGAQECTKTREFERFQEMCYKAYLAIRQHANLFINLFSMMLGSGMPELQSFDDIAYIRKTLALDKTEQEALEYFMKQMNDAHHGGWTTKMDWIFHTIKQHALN

[12] = system: Epidermal growth factor receptor (Homo sapiens), P00533 [G719S]; conditions: Compound concentration 100.0 nM
[13] = target: Cyclin-dependent kinase 4 (Homo sapiens) (UniProt P11802); conditions: Compound concentration 100.0 nM
Cyclin-dependent kinase 4 (Homo sapiens), sequence (P11802 whole entry): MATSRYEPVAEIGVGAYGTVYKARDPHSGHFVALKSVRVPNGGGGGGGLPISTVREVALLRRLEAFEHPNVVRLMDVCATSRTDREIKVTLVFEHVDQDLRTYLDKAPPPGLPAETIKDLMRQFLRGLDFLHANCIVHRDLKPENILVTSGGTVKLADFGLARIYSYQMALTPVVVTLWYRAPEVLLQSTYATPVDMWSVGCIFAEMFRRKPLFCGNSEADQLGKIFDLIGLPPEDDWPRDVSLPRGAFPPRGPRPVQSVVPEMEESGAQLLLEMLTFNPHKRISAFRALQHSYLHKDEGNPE

[14] = target: Histamine H4 receptor (Homo sapiens) (UniProt Q9H3N8); conditions: Compound concentration 10.0 uM
[15] = target: Serine/threonine-protein kinase TAO2 (Homo sapiens) (UniProt Q9UL54); conditions: Compound concentration 100.0 nM
Serine/threonine-protein kinase TAO2 (Homo sapiens), sequence (Q9UL54 whole entry, canonical isoform): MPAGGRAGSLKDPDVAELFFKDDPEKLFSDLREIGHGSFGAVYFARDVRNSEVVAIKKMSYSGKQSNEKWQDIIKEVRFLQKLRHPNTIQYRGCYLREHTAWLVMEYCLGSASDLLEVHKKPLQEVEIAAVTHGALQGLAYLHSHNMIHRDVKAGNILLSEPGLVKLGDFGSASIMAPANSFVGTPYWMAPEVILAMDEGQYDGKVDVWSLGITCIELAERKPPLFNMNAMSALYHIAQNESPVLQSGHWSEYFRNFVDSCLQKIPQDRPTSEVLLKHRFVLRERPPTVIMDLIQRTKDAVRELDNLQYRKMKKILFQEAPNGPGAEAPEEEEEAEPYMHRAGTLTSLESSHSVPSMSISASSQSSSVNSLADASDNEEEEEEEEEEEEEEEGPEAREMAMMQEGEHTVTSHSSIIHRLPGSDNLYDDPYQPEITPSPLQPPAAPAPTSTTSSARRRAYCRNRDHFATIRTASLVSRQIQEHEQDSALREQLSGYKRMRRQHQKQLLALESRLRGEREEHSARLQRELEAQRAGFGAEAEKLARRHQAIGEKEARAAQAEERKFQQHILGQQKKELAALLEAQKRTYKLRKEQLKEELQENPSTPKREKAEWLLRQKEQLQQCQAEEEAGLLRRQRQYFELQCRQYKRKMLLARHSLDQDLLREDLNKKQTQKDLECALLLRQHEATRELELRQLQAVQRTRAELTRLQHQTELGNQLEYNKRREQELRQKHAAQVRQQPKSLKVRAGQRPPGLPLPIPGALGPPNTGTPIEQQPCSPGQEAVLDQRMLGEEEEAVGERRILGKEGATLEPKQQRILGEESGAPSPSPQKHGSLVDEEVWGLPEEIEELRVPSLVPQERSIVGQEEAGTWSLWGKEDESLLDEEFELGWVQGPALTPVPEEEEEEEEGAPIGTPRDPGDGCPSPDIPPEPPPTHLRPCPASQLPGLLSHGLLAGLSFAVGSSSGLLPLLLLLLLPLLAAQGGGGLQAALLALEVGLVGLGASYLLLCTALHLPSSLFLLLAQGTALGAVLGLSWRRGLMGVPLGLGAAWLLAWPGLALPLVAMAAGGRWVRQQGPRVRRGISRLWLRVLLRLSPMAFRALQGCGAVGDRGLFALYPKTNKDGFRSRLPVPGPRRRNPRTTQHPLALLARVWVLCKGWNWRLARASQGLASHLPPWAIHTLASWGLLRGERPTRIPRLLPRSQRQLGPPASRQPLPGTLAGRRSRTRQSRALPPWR

[16] = target: Casein kinase I isoform alpha (Homo sapiens) (UniProt P48729); conditions: Compound concentration 100.0 nM
[17] = target: Serine/threonine-protein kinase Sgk2 (Homo sapiens) (UniProt Q9HBY8); conditions: Compound concentration 100.0 nM
Serine/threonine-protein kinase Sgk2 (Homo sapiens), sequence (Q9HBY8 whole entry): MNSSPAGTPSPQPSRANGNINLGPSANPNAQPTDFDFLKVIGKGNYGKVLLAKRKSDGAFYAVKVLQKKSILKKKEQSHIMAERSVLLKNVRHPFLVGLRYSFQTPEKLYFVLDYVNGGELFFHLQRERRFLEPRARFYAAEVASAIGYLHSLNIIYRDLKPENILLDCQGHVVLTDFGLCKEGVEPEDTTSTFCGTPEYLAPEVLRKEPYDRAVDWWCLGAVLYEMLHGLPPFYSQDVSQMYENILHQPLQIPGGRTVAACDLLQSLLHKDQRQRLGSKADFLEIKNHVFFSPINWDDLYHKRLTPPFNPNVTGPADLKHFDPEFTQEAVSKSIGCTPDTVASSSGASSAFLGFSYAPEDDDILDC

[18] = target: Mitogen-activated protein kinase 4 (Homo sapiens) (UniProt P31152); conditions: Compound concentration 100.0 nM
[19] = target: Casein kinase I isoform gamma-2 (Homo sapiens) (UniProt P78368); conditions: Compound concentration 100.0 nM
Casein kinase I isoform gamma-2 (Homo sapiens), sequence (P78368 whole entry, looked up, canonical isoform): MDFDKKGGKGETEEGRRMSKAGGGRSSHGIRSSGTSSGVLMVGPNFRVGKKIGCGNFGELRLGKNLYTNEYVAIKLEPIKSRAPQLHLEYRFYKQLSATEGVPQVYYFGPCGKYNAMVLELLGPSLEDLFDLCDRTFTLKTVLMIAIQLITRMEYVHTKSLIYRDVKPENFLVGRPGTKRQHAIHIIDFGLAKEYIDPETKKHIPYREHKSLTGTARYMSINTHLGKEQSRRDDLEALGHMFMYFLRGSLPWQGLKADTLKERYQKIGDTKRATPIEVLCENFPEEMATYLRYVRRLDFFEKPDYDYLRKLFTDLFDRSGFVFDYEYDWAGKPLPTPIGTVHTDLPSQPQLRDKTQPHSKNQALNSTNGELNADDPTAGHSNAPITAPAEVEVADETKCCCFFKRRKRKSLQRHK

[20] = target: Serine/threonine-protein kinase 17A (Homo sapiens) (UniProt Q9UEE5); conditions: Compound concentration 100.0 nM
Serine/threonine-protein kinase 17A (Homo sapiens), sequence (Q9UEE5 whole entry): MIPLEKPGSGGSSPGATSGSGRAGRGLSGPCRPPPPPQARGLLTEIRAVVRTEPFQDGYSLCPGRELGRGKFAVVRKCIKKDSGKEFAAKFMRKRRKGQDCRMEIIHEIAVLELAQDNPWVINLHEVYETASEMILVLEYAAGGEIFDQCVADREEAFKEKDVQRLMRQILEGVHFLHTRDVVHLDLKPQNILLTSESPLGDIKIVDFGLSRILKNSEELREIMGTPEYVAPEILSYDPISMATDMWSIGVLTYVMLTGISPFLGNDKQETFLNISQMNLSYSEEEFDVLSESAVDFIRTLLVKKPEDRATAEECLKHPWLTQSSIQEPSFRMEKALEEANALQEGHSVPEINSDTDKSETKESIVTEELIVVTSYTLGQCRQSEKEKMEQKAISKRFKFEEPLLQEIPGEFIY

[21] = target: Homeodomain-interacting protein kinase 4 (Homo sapiens) (UniProt Q8NE63); conditions: Compound concentration 100.0 nM
[22] = target: Insulin receptor-related protein (Homo sapiens) (UniProt P14616); conditions: Compound concentration 100.0 nM
[23] = target: T1, 5-hydroxytryptamine receptor 1A (Homo sapiens) (UniProt P08908); conditions: Compound concentration 10.0 uM
T1 sequence (whole entry): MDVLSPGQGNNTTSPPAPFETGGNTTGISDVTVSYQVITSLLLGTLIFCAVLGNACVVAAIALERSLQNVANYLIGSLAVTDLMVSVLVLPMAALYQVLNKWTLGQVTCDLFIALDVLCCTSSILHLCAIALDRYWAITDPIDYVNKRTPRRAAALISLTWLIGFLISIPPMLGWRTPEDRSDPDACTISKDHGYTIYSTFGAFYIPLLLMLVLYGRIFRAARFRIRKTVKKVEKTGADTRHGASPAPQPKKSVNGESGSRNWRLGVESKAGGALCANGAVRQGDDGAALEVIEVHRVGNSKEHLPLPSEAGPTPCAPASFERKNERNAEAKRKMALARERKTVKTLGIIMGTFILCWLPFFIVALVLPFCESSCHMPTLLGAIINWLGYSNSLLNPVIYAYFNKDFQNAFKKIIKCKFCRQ

[24] = target: Glycogen synthase kinase-3 beta (Homo sapiens) (UniProt P49841); conditions: Compound concentration 100.0 nM
[25] = target: Serine/threonine-protein kinase pim-3 (Homo sapiens) (UniProt Q86V86); conditions: Compound concentration 100.0 nM
[26] = target: Insulin receptor (Homo sapiens) (UniProt P06213); conditions: Compound concentration 100.0 nM
[27] = target: T2, Muscarinic acetylcholine receptor M2 (Homo sapiens) (UniProt P08172); conditions: Compound concentration 10.0 uM
T2 sequence (whole entry): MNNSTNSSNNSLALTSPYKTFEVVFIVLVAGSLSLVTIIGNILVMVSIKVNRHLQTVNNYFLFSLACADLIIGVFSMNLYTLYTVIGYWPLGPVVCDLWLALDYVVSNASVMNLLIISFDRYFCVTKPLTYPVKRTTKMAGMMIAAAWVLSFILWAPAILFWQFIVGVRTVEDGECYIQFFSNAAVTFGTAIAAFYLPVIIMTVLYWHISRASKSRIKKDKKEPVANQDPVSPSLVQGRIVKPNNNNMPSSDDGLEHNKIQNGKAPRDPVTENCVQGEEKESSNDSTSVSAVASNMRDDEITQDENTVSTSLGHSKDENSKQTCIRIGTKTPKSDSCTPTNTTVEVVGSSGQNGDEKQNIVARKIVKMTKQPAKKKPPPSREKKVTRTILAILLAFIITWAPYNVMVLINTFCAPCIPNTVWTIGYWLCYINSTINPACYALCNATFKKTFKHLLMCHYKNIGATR

[28] = target: Cytoplasmic tyrosine-protein kinase BMX (Homo sapiens) (UniProt P51813); conditions: Compound concentration 100.0 nM
[29] = target: Serine/threonine-protein kinase 38-like (Homo sapiens) (UniProt Q9Y2H1); conditions: Compound concentration 100.0 nM
[30] = target: Microtubule-associated serine/threonine-protein kinase 1 (Homo sapiens) (UniProt Q9Y2H9); conditions: Compound concentration 100.0 nM
[31] = target: Protein-tyrosine kinase 2-beta (Homo sapiens) (UniProt Q14289); conditions: Compound concentration 100.0 nM
Protein-tyrosine kinase 2-beta (Homo sapiens), sequence (Q14289 whole entry, looked up): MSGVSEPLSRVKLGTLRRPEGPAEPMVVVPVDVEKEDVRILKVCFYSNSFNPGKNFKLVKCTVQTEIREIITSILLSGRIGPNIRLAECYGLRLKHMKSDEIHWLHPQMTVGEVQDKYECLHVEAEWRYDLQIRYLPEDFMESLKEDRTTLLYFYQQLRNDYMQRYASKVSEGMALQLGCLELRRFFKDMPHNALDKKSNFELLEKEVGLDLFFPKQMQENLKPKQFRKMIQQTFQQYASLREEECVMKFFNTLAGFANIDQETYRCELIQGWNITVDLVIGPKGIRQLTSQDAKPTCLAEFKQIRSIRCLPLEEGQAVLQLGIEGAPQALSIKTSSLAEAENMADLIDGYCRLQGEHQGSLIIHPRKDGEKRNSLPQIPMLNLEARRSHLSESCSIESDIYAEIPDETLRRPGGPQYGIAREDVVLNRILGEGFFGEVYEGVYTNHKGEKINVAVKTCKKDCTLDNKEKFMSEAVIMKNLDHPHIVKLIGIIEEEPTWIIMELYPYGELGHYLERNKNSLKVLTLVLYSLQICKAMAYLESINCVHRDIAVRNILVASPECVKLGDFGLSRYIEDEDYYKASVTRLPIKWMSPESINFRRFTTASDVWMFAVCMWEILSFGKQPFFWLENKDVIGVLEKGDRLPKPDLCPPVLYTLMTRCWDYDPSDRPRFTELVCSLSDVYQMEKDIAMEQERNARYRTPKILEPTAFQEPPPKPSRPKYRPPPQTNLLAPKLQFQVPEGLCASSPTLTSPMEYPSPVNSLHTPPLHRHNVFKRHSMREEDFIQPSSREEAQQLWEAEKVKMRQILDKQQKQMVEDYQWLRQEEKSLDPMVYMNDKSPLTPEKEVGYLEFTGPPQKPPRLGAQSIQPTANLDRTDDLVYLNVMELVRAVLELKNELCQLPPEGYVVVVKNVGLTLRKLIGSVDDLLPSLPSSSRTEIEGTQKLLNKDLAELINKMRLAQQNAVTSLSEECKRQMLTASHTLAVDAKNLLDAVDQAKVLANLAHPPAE

[32] = target: Serine/threonine-protein kinase PAK 1 (Homo sapiens) (UniProt Q13153); conditions: Compound concentration 100.0 nM
[33] = system: Tyrosine-protein kinase ABL1 (Homo sapiens), P00519 [T315I]; conditions: Compound concentration 100.0 nM
[34] = target: LIM domain kinase 1 (Homo sapiens) (UniProt P53667); conditions: Compound concentration 100.0 nM

CC(C)CC(=O)N1CCc2nc(-c3ccc(Br)cc3)nc(N(C)Cc3ccccc3)c2C1 [THPP-1-NC]
inactive: residual activity [1] 100% | residual activity [2] 100% | residual activity [3] 100% | residual activity [4] 80% | residual activity [5] 97% | residual activity [6] 100% | residual activity [7] 100% | residual activity [8] 96% | residual activity [9] 100% | residual activity [10] 100% | residual activity [11] 98% | residual activity [12] 100% | residual activity [13] 93% | inhibition [14] -7.78% | residual activity [15] 97% | residual activity [16] 73% | residual activity [17] 94% | residual activity [18] 100% | residual activity [19] 86% | residual activity [20] 96% | residual activity [21] 61% | residual activity [22] 100% | inhibition [23] -0.56% | residual activity [24] 100% | residual activity [25] 100% | residual activity [26] 84% | inhibition [27] 18.2% | residual activity [28] 100% | residual activity [29] 95% | residual activity [30] 100% | residual activity [31] 100% | residual activity [32] 100% | residual activity [33] 100% | residual activity [34] 100%

COCCOc1nc(-c2ccc(Cl)nc2)nc2c1CN(C(=O)c1ncn3ccccc13)CC2 [THPP-1]
inactive: residual activity [1] 100% | residual activity [2] 100% | residual activity [3] 100% | residual activity [4] 82% | residual activity [5] 100% | residual activity [6] 100% | residual activity [7] 100% | residual activity [8] 100% | residual activity [9] 100% | residual activity [10] 100% | residual activity [11] 66% | residual activity [12] 97% | residual activity [13] 100% | inhibition [14] -6.39% | residual activity [15] 99% | residual activity [16] 98% | residual activity [17] 88% | residual activity [18] 100% | residual activity [19] 94% | residual activity [20] 79% | residual activity [21] 83% | residual activity [22] 100% | inhibition [23] -0.41% | residual activity [24] 100% | residual activity [25] 100% | residual activity [26] 76% | inhibition [27] 19.3% | residual activity [28] 100% | residual activity [29] 100% | residual activity [30] 100% | residual activity [31] 100% | residual activity [32] 100% | residual activity [33] 75% | residual activity [34] 100%
